{
  "source": "patent US6420430B1",
  "about": "“Use of inhibitors of the sodium-hydrogen exchanger for preparing a medicament for preventing age-related disorders, and for prolonging life” (Aventis Pharma Deutschland GmbH, priority 1998, dated 2002)",
  "key": {"[1]": {"tested_on": "normotensive Wistar-Kyoto rats (WKY rats)", "assay": "Life-long treatment of normotensive WKY rats with cariporide via the feed: lifespan, cumulative survival rate, onset of age-related cancer", "format": "in vivo, rat", "from_the_text": "The effect of a life-long treatment of young normotensive Wistar-Kyoto rats (WKY rats) with the sodium-hydrogen exchanger (“NHE”) inhibitor cariporide was investigated. In addition to the primary end point, the lifespan, surrogate parameters were studied and measured, for example the hypertrophy of the left ventricle of the heart, heart function, metabolism and endothelial function. In addition, organs, such as heart, kidneys, skeletal muscles and eyes, were examined histomorphologically.\nNinety one-month-old WKY rats were randomized into two groups of placebo-treated (n=45) and cariporide-treated (n=45) rats. Cariporide was administered via the feed (active compound content 0.3%).\nMale WKY rats were purchased from Møllegrad Denmark. The animals (3 per cage) were kept under standardized conditions with respect to temperature, atmospheric humidity and light. The rats had free access to a standard diet (Altromin® maintenance diet 1320, sodium content 0.2%) and received drinking water ad libitum. All experiments were carried out in accordance with the German Law on the Protection of Animals.\nNinety one-month-old animals were randomized into two groups of in each case 45 animals. After randomization, placebo and cariporide were administered to the rats via the drinking water and the feed, respectively, a proportion of 0.3% of the feed ensuring complete blockage of the NHE for 24 hours.\nAt intervals of 3 months, the body weight was determined and the blood pressure was measured using the tail plethysmography method. Events of death were registered after they had occurred.\nAll data are stated as mean±standard deviations. The survival data were analyzed in accordance with Kaplan-Meier, followed by a Mantel-Cox log-rank test. Furthermore, variance analysis (ANOVA) followed by a Student-Newman-Keuls test were employed. Null hypotheses were rejected at p<0.05."}, "WKY rats [2]": {"tested_on": "WKY rats", "assay": "Interim analysis after 30 months: organ weights (heart, ventricles, kidneys, spleen)", "format": "in vivo, rat", "description": "(§1) The interim analysis was carried out after 80% of the placebo-treated animals had died; this was the case after 30 months. 10 animals of each group were selected at random and anesthetized (hexobarbital, 80 mg·kg^−1, i.p.). Blood samples were then taken, and the thoracic aortae and the hearts were prepared and biochemically and/or functionally examined (Linz et al., 1997). In accordance with the method described by Langendorff, the hearts were perfused with an oxygen-saturated (95% O2, […]), non-circulating Krebs-Henseleit solution of the following composition (mmol/l): NaCl, 118; KCl, 4.7; CaCl2, 2.5; MgSO4, 1.6; NaHCO3, 24.9; KH2PO4, 1.2; glucose, 5.5; Na-pyruvate, 2.0, using a perfusion pressure of 60 mm Hg. The pressure in the left ventricle and the pulse frequency of the heart were measured using a balloon catheter. The coronary blood flow was determined using an electromagnetic flow gage. After a washing phase of 5 minutes, 1 ml of the coronary effluent was taken off for measuring the lactate concentrations and the lactate dehydrogenase and creatine kinase activities. The weights of the entire heart and the weights of the left and the right ventricle were then determined. The left ventricle was fixed in 10% strength neutral buffered formalin solution and embedded in paraffin for light-microscopic examination."}, "[3]": {"tested_on": "isolated heart of WKY rats", "assay": "Function and metabolism of the isolated heart (Langendorff) after 30 months of treatment", "format": "in vivo, rat", "details": "n = 10 per group", "description": "as §1"}, "[4]": {"tested_on": "isolated thoracic aorta of WKY rats", "assay": "Vessel function on isolated rings of the thoracic aorta: endothelium-dependent relaxation by acetylcholine after KCl precontraction", "format": "in vivo, rat", "details": "KCl-precontracted aorta rings, 30-month-old rats", "description": "The interim analysis was carried out after 80% of the placebo-treated animals had died; this was the case after 30 months. 10 animals of each group were selected at random and anesthetized (hexobarbital, 80 mg·kg^−1, i.p.). Blood samples were then taken, and the thoracic aortae and the hearts were prepared and biochemically and/or functionally examined (Linz et al., 1997). The aorta was introduced into Tyrode's solution and freed from the surrounding fatty tissue. Segments of 2 mm were then sliced into rings, and these rings were introduced in a temperature-controlled (37° C.) organ bath (10 ml) with Tyrode's solution (composition in mol/l: NaCl 136.9; NaHCO3 11.9; KCl 2.7; CaCl2 0.5; MgCl2 2.0; NaHPO4 0.4; glucose 5.5; pH=7.4), and 95% O2/5% CO2 was bubbled through the solution. Each ring was mounted vertically between two fine steel clamps. The upper clamp was connected to a force sensor. The force signal was recorded using a computer-assisted biosignal analyzer. The aorta rings were suspended using a passive tension of 4.9 mN. After an adaptation period of one hour, the rings were contracted using potassium chloride (20 mmol/l). After a plateau had been reached, increasing concentrations of acetylcholine of 10^−8, 10^−7, 10^−6 and 10^−5 mol/l were added to the bath, triggering an endothelium dependent relaxation."}, "WKY rats [5]": {"tested_on": "WKY rats", "assay": "Histomorphological examination of organs (heart, kidneys, skeletal muscles, eyes, liver)", "format": "in vivo, rat", "details": "for age-related histomorphological organ changes (connective tissue in heart muscle, muscular dystrophy, tubulointerstitial kidney damage, retina atrophy): life-long treatment, WKY rats", "from_the_text": "The effect of a life-long treatment of young normotensive Wistar-Kyoto rats (WKY rats) with the sodium-hydrogen exchanger (“NHE”) inhibitor cariporide was investigated. In addition to the primary end point, the lifespan, surrogate parameters were studied and measured, for example the hypertrophy of the left ventricle of the heart, heart function, metabolism and endothelial function. In addition, organs, such as heart, kidneys, skeletal muscles and eyes, were examined histomorphologically. In accordance with the method described by Langendorff, the hearts were perfused with an oxygen-saturated (95% O2, […]), non-circulating Krebs-Henseleit solution of the following composition (mmol/l): NaCl, 118; KCl, 4.7; CaCl2, 2.5; MgSO4, 1.6; NaHCO3, 24.9; KH2PO4, 1.2; glucose, 5.5; Na-pyruvate, 2.0, using a perfusion pressure of 60 mm Hg. The pressure in the left ventricle and the pulse frequency of the heart were measured using a balloon catheter. The coronary blood flow was determined using an electromagnetic flow gage. After a washing phase of 5 minutes, 1 ml of the coronary effluent was taken off for measuring the lactate concentrations and the lactate dehydrogenase and creatine kinase activities. The weights of the entire heart and the weights of the left and the right ventricle were then determined. The left ventricle was fixed in 10% strength neutral buffered formalin solution and embedded in paraffin for light-microscopic examination."}, "hypertensive rats": {"tested_on": "hypertensive rats", "details": "hypertensive rats only; Circulation 1997; 96: 3164-3172; cited from earlier work"}},
  "note": "Entries after “also recorded” stand apart in the source; their conditions may differ.",
  "data": [
    {"compound": "CC(C)c1ccc(C(=O)N=C(N)N)cc1S(C)(=O)=O.CS(=O)(=O)O", "note": "[Cariporide, cariporide]", "values": [
      {"measurement": "Survival rate in percent", "setting": "[1]; 19 months", "result": 100, "unit": "%"},
      {"measurement": "Survival rate in percent", "setting": "[1]; 20 months", "result": 100, "unit": "%"},
      {"measurement": "Survival rate in percent", "setting": "[1]; 21 months", "result": 100, "unit": "%"},
      {"measurement": "Survival rate in percent", "setting": "[1]; 22 months", "result": 100, "unit": "%"},
      {"measurement": "Survival rate in percent", "setting": "[1]; 23 months", "result": 97, "unit": "%"},
      {"measurement": "Survival rate in percent", "setting": "[1]; 24 months", "result": 97, "unit": "%"},
      {"measurement": "Survival rate in percent", "setting": "[1]; 25 months", "result": 97, "unit": "%"},
      {"measurement": "Survival rate in percent", "setting": "[1]; 26 months", "result": 97, "unit": "%"},
      {"measurement": "Survival rate in percent", "setting": "[1]; 27 months", "result": 97, "unit": "%"},
      {"measurement": "Survival rate in percent", "setting": "[1]; 28 months", "result": 97, "unit": "%"},
      {"measurement": "Survival rate in percent", "setting": "[1]; 29 months", "result": 92, "unit": "%"},
      {"measurement": "Survival rate in percent", "setting": "[1]; 30 months", "result": 89, "unit": "%"},
      {"measurement": "Survival rate in percent", "setting": "[1]; 31 months", "result": 80, "unit": "%"},
      {"measurement": "Survival rate in percent", "setting": "[1]; 32 months", "result": 75, "unit": "%"},
      {"measurement": "Survival rate in percent", "setting": "[1]; 33 months", "result": 67, "unit": "%"},
      {"measurement": "Survival rate in percent", "setting": "[1]; 34 months", "result": 59, "unit": "%"},
      {"measurement": "Survival rate in percent", "setting": "[1]; 35 months", "result": 49, "unit": "%"},
      {"measurement": "Survival rate in percent", "setting": "[1]; 36 months", "result": 38, "unit": "%"},
      {"measurement": "Survival rate in percent", "setting": "[1]; 37 months", "result": 28, "unit": "%"},
      {"measurement": "Survival rate in percent", "setting": "[1]; 38 months", "result": 17, "unit": "%"},
      {"measurement": "Survival rate in percent", "setting": "[1]; 39 months", "result": 10, "unit": "%"},
      {"measurement": "maximum lifespan", "setting": "[1]; life-long treatment, 0.3% in feed, WKY rats, placebo 30 months", "result": 39, "unit": "months"},
      {"measurement": "onset of age-related cancer", "setting": "[1]; life-long treatment, WKY rats, listed as cariporide", "result": "delayed onset; also recorded: delayed significantly"},
      {"measurement": "life extension", "setting": "[1]; maximum lifespan versus placebo", "result": 30, "unit": "%"},
      {"measurement": "Heart weight, Heart (total)", "setting": "WKY rats [2]; n = 10/group", "result": "235 ± 10 mg/100 g of body weight"},
      {"measurement": "Heart weight, Left ventricle", "setting": "WKY rats [2]; n = 10/group", "result": "193 ± 8 mg/100 g of body weight"},
      {"measurement": "Heart weight, Right ventricle", "setting": "WKY rats [2]; n = 10/group", "result": "36 ± 2 mg/100 g of body weight"},
      {"measurement": "age-related hypertrophy of the heart", "setting": "WKY rats [2]; versus placebo-treated animals", "result": "prevented"},
      {"measurement": "CF (coronary flow)", "setting": "[3]", "result": "34.6 ± 0.7", "unit": "mL/min/g"},
      {"measurement": "CK (creatine kinase in the coronary effluent)", "setting": "[3]", "result": "0.20 ± 0.02", "unit": "mU/min/g heart wwt"},
      {"measurement": "HR", "setting": "[3]", "result": "182 ± 7", "unit": "beats/min"},
      {"measurement": "LDH (lactate dehydrogenase in the coronary effluent)", "setting": "[3]", "result": "0.42 ± 0.02", "unit": "mU/min/g heart wwt"},
      {"measurement": "LVP (pressure in the left ventricle)", "setting": "[3]", "result": "111.5 ± 3.9", "unit": "mm Hg"},
      {"measurement": "Lactate in the coronary effluent", "setting": "[3]", "result": "2.5 ± 0.13", "unit": "μmol/min/g heart wwt"},
      {"measurement": "dP/dtmax (constriction rate of the left ventricle)", "setting": "[3]", "result": "4432 ± 121", "unit": "mm Hg/s"},
      {"measurement": "Vessel function on the aorta (relaxation in %)", "setting": "[4]; ACh 10^−5 mol/l", "result": "95 ± 10", "unit": "%"},
      {"measurement": "Vessel function on the aorta (relaxation in %)", "setting": "[4]; ACh 10^−6 mol/l", "result": "85 ± 8", "unit": "%"},
      {"measurement": "Vessel function on the aorta (relaxation in %)", "setting": "[4]; ACh 10^−7 mol/l", "result": "50 ± 6", "unit": "%"},
      {"measurement": "Vessel function on the aorta (relaxation in %)", "setting": "[4]; ACh 10^−8 mol/l", "result": "5 ± 2", "unit": "%"},
      {"measurement": "histomorphology of the livers", "setting": "WKY rats [5]; compared with control animals", "result": "unchanged"},
      {"measurement": "age-related histomorphological organ changes (connective tissue in heart muscle, muscular dystrophy, tubulointerstitial kidney damage, retina atrophy)", "setting": "WKY rats [5]", "result": "drastically reduced"},
      {"measurement": "age-related histomorphological organ changes (connective tissue in heart muscle, muscular dystrophy, tubulointerstitial kidney damage, retina atrophy)", "setting": "WKY rats [5]; listed as cariporide", "result": "reduced drastically or prevented completely"}
    ]},
    {"compound": "CCOC(=O)[C@H](CCc1ccccc1)N[C@@H](C)C(=O)N1[C@H](C(=O)O)C[C@@H]2CCC[C@@H]21", "note": "[ramipril]", "values": [
      {"measurement": "effect on lifespan", "setting": "hypertensive rats", "result": "life-prolonging effect"}
    ]}
  ]
}
